# Test results from DBAASP.
# Where “and” joins values, the source holds several entries; their conditions need not be identical. Identical values can stand only once.
# Legend:
# Test in all cases: ≥ marks a high value that may be exact or a test limit, other limits are often not marked, values filed in µg/mL are converted to µM
# Staphylococcus aureus = tested on: Staphylococcus aureus
# Pseudomonas aeruginosa = tested on: Pseudomonas aeruginosa
# Escherichia coli = tested on: Escherichia coli
# [1] = tested on: Escherichia coli ATCC 25922
# [2] = tested on: Staphylococcus aureus ATCC 29213
# [3] = tested on: Pseudomonas aeruginosa ATCC 27853
# [4] = tested on: Staphylococcus epidermidis ATCC 12228
Structure (SMILES),MIC (Staphylococcus aureus) [µM],MIC (Pseudomonas aeruginosa) [µM],MIC (Escherichia coli),also measured
CSCC[C@H](NC(=O)[C@H](C)NC(=O)[C@H](CCC(=O)O)NC(=O)CNC(=O)[C@@H](NC(=O)[C@H](Cc1ccccc1)NC(=O)[C@H](C)NC(=O)[C@H](CCCCN)NC(=O)CNC(=O)[C@H](Cc1ccccc1)NC(=O)[C@H](CCCN=C(N)N)NC(=O)[C@H](CCCCN)NC(=O)[C@H](C)NC(=O)[C@H](CO)NC(=O)[C@H](Cc1cnc[nH]1)NC(=O)[C@H](CC(C)C)NC(=O)[C@H](Cc1ccccc1)NC(=O)[C@H](CCCCN)NC(=O)CNC(=O)[C@H](CC(C)C)NC(=O)CN)C(C)C)C(=O)N[C@@H](CC(N)=O)C(=O)N[C@@H](CO)C(N)=O [GLGKFLHSAKRFGKAFVGEAMNS],> 75,> 75,75 µM,
CC[C@H](C)[C@H](N)C(=O)N[C@@H](CC(N)=O)C(=O)N[C@@H](Cc1c[nH]c2ccccc12)C(=O)N[C@@H](CCCCN)C(=O)N[C@@H](CCCCN)C(=O)N[C@H](C(=O)N[C@@H](C)C(=O)N[C@@H](CO)C(=O)N[C@H](C(=O)NCC(=O)N[C@@H](CCCCN)C(=O)N[C@@H](CCC(=O)O)C(=O)N[C@H](C(=O)N[C@@H](CC(C)C)C(=O)N[C@@H](CCCCN)C(=O)N[C@@H](C)C(=O)N[C@@H](CC(C)C)C(N)=O)C(C)C)[C@@H](C)CC)[C@@H](C)CC [INWKKIASIGKEVLKAL],25.8,86.6,7.3 µM and 5 µM and 2.5 µM,
CC[C@H](C)[C@H](NC(=O)[C@H](CCCCN)NC(=O)[C@H](C)NC(=O)CNC(=O)[C@@H](NC(=O)[C@H](CCCCN)NC(=O)[C@@H](NC(=O)[C@H](CCCCN)NC(=O)[C@H](C)NC(=O)CNC(=O)[C@H](Cc1c[nH]c2ccccc12)NC(=O)[C@H](CCCCN)NC(=O)[C@@H](NC(=O)[C@H](CCCCN)NC(=O)[C@H](C)NC(=O)CNC(=O)[C@@H](NC(=O)[C@@H](N)CCCCN)[C@@H](C)CC)[C@@H](C)CC)[C@@H](C)CC)[C@@H](C)CC)C(N)=O [KIGAKIKWGAKIKIGAKI],4.16,4.16,4.16 µM,
CC[C@H](C)[C@H](NC(=O)[C@H](C)NC(=O)CNC(=O)[C@H](CCCCN)NC(=O)[C@@H](NC(=O)[C@H](CCCCN)NC(=O)[C@@H](NC(=O)[C@H](C)NC(=O)CNC(=O)[C@H](CCCCN)NC(=O)[C@H](Cc1c[nH]c2ccccc12)NC(=O)[C@H](CCCCN)NC(=O)[C@@H](NC(=O)[C@H](C)NC(=O)CNC(=O)[C@H](CCCCN)NC(=O)[C@@H](NC(=O)[C@@H](N)CCCCN)[C@@H](C)CC)[C@@H](C)CC)[C@@H](C)CC)[C@@H](C)CC)C(N)=O [KIKGAIKWKGAIKIKGAI],8.32,8.32,4.16 µM,
CC[C@H](C)[C@H](NC(=O)[C@H](C)NC(=O)CNC(=O)[C@@H](NC(=O)[C@H](CCCCN)NC(=O)[C@H](CCCCN)NC(=O)[C@@H](NC(=O)[C@H](C)NC(=O)CNC(=O)[C@H](Cc1c[nH]c2ccccc12)NC(=O)[C@H](CCCCN)NC(=O)[C@H](CCCCN)NC(=O)[C@@H](NC(=O)[C@H](C)NC(=O)CNC(=O)[C@@H](NC(=O)[C@H](CCCCN)NC(=O)[C@@H](N)CCCCN)[C@@H](C)CC)[C@@H](C)CC)[C@@H](C)CC)[C@@H](C)CC)C(N)=O [KKIGAIKKWGAIKKIGAI],> 133,66.5,66.5 µM,
CC[C@H](C)[C@H](NC(=O)[C@H](Cc1ccccc1)NC(=O)[C@H](CO)NC(=O)[C@H](CCCCN)NC(=O)[C@H](Cc1c[nH]c2ccccc12)NC(=O)[C@@H](N)CCCCN)C(=O)N[C@@H](CCCCN)C(=O)N[C@@H](CCCCN)C(=O)N[C@@H](CC(C)C)C(=O)N[C@@H](C)C(=O)N[C@@H](CO)C(=O)N[C@@H](CCCCN)C(=O)N[C@@H](Cc1ccccc1)C(=O)N[C@@H](CC(C)C)C(=O)N[C@@H](Cc1cnc[nH]1)C(=O)N[C@@H](CO)C(=O)N[C@@H](C)C(=O)N[C@@H](CCCCN)C(=O)N[C@@H](CCCCN)C(=O)N[C@@H](Cc1ccccc1)C(N)=O [KWKSFIKKLASKFLHSAKKF],,5.16,,
CC[C@H](C)[C@H](NC(=O)[C@H](Cc1ccccc1)NC(=O)[C@H](CO)NC(=O)[C@H](CCCCN)NC(=O)[C@H](Cc1c[nH]c2ccccc12)NC(=O)[C@@H](N)CCCCN)C(=O)N[C@@H](CCCCN)C(=O)N[C@@H](CCCCN)C(=O)N[C@@H](CC(C)C)C(=O)N[C@H](C(=O)N[C@@H](CO)C(=O)N[C@@H](CCCCN)C(=O)N[C@@H](Cc1ccccc1)C(=O)N[C@@H](CC(C)C)C(=O)N[C@@H](Cc1cnc[nH]1)C(=O)N[C@@H](CO)C(=O)N[C@@H](C)C(=O)N[C@@H](CCCCN)C(=O)N[C@@H](CCCCN)C(=O)N[C@@H](CC(N)=O)C(N)=O)[C@@H](C)O [KWKSFIKKLTSKFLHSAKKN],,2.58,,
CC[C@H](C)[C@H](NC(=O)[C@H](CCSC)NC(=O)[C@H](C)NC(=O)[C@@H]1CCCN1C(=O)[C@@H](NC(=O)[C@@H](NC(=O)[C@H](CCCCN)NC(=O)[C@@H](NC(=O)[C@H](CC(C)C)NC(=O)CNC(=O)CNC(=O)[C@@H](N)CC(C)C)[C@@H](C)CC)[C@@H](C)CC)C(C)C)C(=O)N[C@H]1CSSC[C@@H](C(=O)O)NC(=O)[C@H](CCCCN)NC(=O)[C@H](CCCCN)NC(=O)[C@H]([C@@H](C)O)NC(=O)[C@H](C(C)C)NC(=O)[C@H](C)NC1=O [LGGLIKIVPAMICAVTKKC],,,,MIC [1]: 131 µM; MIC [2]: 131 µM; MIC [3]: > 131 µM
CC[C@H](C)[C@H](NC(=O)[C@H](CCCCN)NC(=O)[C@H](CCCCN)NC(=O)[C@@H](N)CCC(N)=O)C(=O)N[C@@H](CCCN=C(N)N)C(=O)N[C@H](C(=O)N[C@@H](CCCN=C(N)N)C(=O)N[C@@H](C)C(=O)N[C@@H](CO)C(=O)N[C@@H](C)C(=O)O)C(C)C [QKKIRVRASA],,,,MIC [1]: > 55.3 µM; MIC [2]: > 55.3 µM; MIC [3]: > 55.3 µM
CC[C@H](C)[C@H](NC(=O)[C@H](CCCCN)NC(=O)[C@H](CCCCN)NC(=O)[C@@H](N)CCC(N)=O)C(=O)N[C@@H](CCCN=C(N)N)C(=O)N[C@H](C(=O)N[C@@H](CCCN=C(N)N)C(=O)N[C@@H](CC(C)C)C(=O)N[C@@H](C)C(=O)N[C@@H](C)C(=O)O)C(C)C [QKKIRVRLAA],,,,MIC [1]: 13.5 µM; MIC [2]: > 54.1 µM; MIC [3]: 13.5 µM
CC[C@H](C)[C@H](NC(=O)[C@H](Cc1c[nH]c2ccccc12)NC(=O)[C@H](CCCN=C(N)N)NC(=O)[C@H](CCC(N)=O)NC(=O)[C@@H](NC(=O)[C@H](Cc1c[nH]c2ccccc12)NC(=O)[C@H](CCCN=C(N)N)NC(=O)[C@@H](N)CCCN=C(N)N)C(C)C)C(=O)N[C@@H](CCCN=C(N)N)C(=O)N[C@@H](CCCN=C(N)N)C(=O)N[C@@H](Cc1c[nH]c2ccccc12)C(=O)N[C@@H](CCCN=C(N)N)C(=O)N[C@@H](CCCCN)C(=O)N[C@@H](Cc1c[nH]c2ccccc12)C(=O)N[C@H](C(=O)O)C(C)C [RRWVQRWIRRWRKWV],20,20,,
CC[C@H](C)[C@H](NC(=O)CNC(=O)[C@H](CC(C)C)NC(=O)[C@@H](NC(=O)[C@H](Cc1ccc(O)cc1)NC(=O)[C@@H](NC(=O)[C@H](CO)NC(=O)[C@@H](NC(=O)[C@@H]1CCCN1C(=O)[C@@H](NC(=O)[C@@H](N)CO)C(C)C)[C@@H](C)O)C(C)C)[C@@H](C)O)C(=O)N[C@@H](CCCCN)C(=O)N[C@H](C(=O)N[C@@H](CC(C)C)C(=O)N[C@@H](Cc1c[nH]c2ccccc12)C(=O)N[C@@H](CO)C(=O)N[C@@H](C)C(=O)N[C@@H](Cc1ccc(O)cc1)C(=O)N[C@@H](CCCCN)C(=O)N[C@@H](Cc1cnc[nH]1)C(=O)O)[C@@H](C)CC [SVPTSVYTLGIKILWSAYKH],,,,MIC [4]: 50 µM
